Experiments:
[1] = system: HCT-116 human colorectal carcinoma cells; assay: Cell-proliferation assay using Alamar Blue dye; assay type: cell-based; conditions: Homo sapiens, HCT-116, second HCT-116 column (c8); read-out: HCT-116 (uM) cell proliferation modulatory activity;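 note: cells exposed to compound for about 4 days, then Alamar Blue added and dye fluorescence read after about 4 h, compared with medium-only control wells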
[2] = target: recombinant human PIM1 (Homo sapiens (Human), UniProt P11309); assay: PIM-1 kinase activity in cell-free in vitro assay; assay type: biochemical; conditions: cell-free assay; for inhibition at 0.5 µM: 500 nM compound, read-out: PIM-1: % inh 500 nM
recombinant human PIM1, sequence (P11309 whole entry): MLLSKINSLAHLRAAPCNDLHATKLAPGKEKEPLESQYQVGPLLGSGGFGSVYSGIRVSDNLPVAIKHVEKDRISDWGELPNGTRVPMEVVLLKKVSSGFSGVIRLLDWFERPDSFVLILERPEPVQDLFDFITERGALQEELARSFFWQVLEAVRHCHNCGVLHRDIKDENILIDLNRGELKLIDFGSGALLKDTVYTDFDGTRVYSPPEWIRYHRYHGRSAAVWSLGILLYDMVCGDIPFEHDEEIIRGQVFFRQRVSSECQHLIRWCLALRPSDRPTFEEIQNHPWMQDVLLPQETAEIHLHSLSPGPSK

[3] = system: Jurkat; assay: Cell proliferation modulatory activity, Jurkat; assay type: cell-based; conditions: Homo sapiens; Jurkat cells
[4] = system: K-562; assay: Cell proliferation modulatory activity, K-562; assay type: cell-based; conditions: Homo sapiens, K562; K-562 cells
[5] = system: MV-4-11; assay: Cell proliferation modulatory activity, MV-4-11; assay type: cell-based; conditions: Homo sapiens, MV4-11; MV-4-11 cells
[6] = target: Flt3 (Homo sapiens (Human), UniProt P36888); conditions: cited from earlier work
Flt3, sequence (P36888 27-993): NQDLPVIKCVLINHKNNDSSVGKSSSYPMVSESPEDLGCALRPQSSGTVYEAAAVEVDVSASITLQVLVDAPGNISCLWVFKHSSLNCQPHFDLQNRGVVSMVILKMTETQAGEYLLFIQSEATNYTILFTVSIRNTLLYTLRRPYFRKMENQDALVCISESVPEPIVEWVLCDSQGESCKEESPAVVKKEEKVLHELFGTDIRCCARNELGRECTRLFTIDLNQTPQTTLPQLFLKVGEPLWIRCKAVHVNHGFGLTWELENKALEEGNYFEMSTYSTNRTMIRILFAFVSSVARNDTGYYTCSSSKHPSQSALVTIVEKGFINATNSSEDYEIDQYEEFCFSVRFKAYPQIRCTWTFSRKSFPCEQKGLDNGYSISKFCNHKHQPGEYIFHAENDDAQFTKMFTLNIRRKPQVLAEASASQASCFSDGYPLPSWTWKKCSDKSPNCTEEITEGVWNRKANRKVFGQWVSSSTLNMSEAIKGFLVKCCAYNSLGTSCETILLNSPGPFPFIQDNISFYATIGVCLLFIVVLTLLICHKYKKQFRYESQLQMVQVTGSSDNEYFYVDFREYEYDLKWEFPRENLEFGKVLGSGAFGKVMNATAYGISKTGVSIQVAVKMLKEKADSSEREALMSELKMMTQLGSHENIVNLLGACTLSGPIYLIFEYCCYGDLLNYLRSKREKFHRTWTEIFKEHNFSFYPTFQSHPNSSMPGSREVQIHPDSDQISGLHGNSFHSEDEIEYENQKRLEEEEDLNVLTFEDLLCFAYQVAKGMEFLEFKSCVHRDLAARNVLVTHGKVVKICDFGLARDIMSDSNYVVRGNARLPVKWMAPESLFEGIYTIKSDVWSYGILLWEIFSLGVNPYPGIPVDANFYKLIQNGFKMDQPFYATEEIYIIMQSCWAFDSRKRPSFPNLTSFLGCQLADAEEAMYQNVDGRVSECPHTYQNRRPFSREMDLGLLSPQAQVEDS

[7] = Pharmacokinetics after IV and PO dose in ICR mice; assay type: in vivo; conditions: for half-life: mouse, plasma
Method: […] Blood samples were collected at predetermined times and the plasma separated. Plasma was separated from the blood samples collected at 5, 15 and 30 minutes and 1, 2, 4, 8 and 24 hours post-dose.
Drug levels were quantified by the LC/MS/MS method described below. Noncompartmental pharmacokinetic analysis was applied for intravenous administration. A linear trapezoidal rule was used to compute AUC(0-24). The terminal t1/2 and C0 were calculated using the last three and the first three data points, respectively
(§1) Bioanalysis was performed using a Quattro Micro LC/MS/MS instrument in the MRM detection mode, with an internal standard (IS). Briefly, 15 µL plasma samples were prepared for analysis using protein precipitation with 120 μL of acetonitrile. The supernatants were transferred into a 96 well plate and subjected to LC-MS/MS analysis using a Phenomenex Polar-RP HPLC column. The mobile phases were 10 mM NH4HCO3 in water (Solution-A) and 10 mM NH4HCO3 in methanol (Solution-B). […] Quantitation of the analytes was performed in the batch mode with two bracketing calibration curves according to the bioanalytical sample list.

[8] = Pharmacokinetics after IV and PO dose in SD rats; assay type: in vivo; conditions: for Tmax / half-life / Cmax / Vd: rat, plasma
Method: (§2) The pharmacokinetics properties of drugs were also investigated in SD rats and beagle dogs following an intravenous (IV) bolus and oral (PO) doses of drug using similar methods. Blood samples were collected at predetermined times and the plasma separated.
(§3) Drug levels were quantified by the LC/MS/MS method described below. Noncompartmental pharmacokinetic analysis was applied for intravenous administration. […] The terminal t1/2 and C0 were calculated using the last three and the first three data points, respectively
as §1

[9] = Pharmacokinetics after IV and PO dose in beagle dogs; assay type: in vivo; conditions: for Cmax / Vd / half-life / Tmax: plasma
Method: as §2, §3, §1

[10] = system: MCF-7 xenografts; assay: Tumor suppression in MCF-7 xenograft animals; assay type: in vivo, NCr nu/nu mice; conditions: oral 100 mg/kg
Method: (§4) Animals were handled under laminar-flow hoods.
(§5) Gemzar™ administered at a dose of 80 mg/kg IP Q3D was used as a positive control.

[11] = system: PC-3 xenografts; assay: Tumor suppression in PC-3 xenograft animals; assay type: in vivo, NCr nu/nu mice; conditions: oral 150 mg/kg
Method: as §4, §5

[12] = system: A549 (human lung cancer cells) xenograft; assay: Tumor suppression in A549 xenograft mice; assay type: in vivo; conditions: oral administration
Text: as §4
The compound was delivered by oral administration for such determinations.

[13] = system: BX-PC3 (human pancreatic cancer cells) xenograft; assay: Tumor suppression in BX-PC3 xenograft mice; assay type: in vivo
[14] = Distribution of compound in plasma and tumors of animals; assay type: in vivo, mice
Method: The distribution of compound A1 in the plasma and tumors of animals was assessed.

[15] = system: caspase-3 cell staining; assay: Caspase-3 staining as biomarker in treated tumors; assay type: in vivo, mice; conditions: 60 mg/kg IV
Method: Caspase staining also was assessed as a biomarker for compound A1 treatment of tumors.

[16] = system: MiaPaca xenografts; assay: Tumor suppression in MiaPaca xenograft mice; assay type: in vivo, NCr nu/nu mice
Method: as §4
Tumor volume measurements (FIG. 3A) and body weight (FIG. 3B) were recorded on days 3, 6, 8, 10, 13 and 15.
as §5

[17] = system: MDA-MB-231 xenografts; assay: Tumor suppression in MDA-MB-231 xenograft animals; assay type: in vivo, mice; conditions: IV 30 and 60 mg/kg and oral 200 mg/kg
Text: as §4

[18] = Body weight of tumor-bearing xenograft animals; assay type: in vivo, mice; conditions: BC-PC3 xenograft; IV or IP dosing, days 1-18
[19] = Tumor pharmacokinetic studies, IV QDx6; assay type: in vivo, mice; conditions: 30 mg/kg IV QD×6
[20] = system: HUVEC cells; assay: Human endothelial tube formation assay (BD BioCoat Angiogenesis System); assay type: cell-based; conditions: 18 hrs
[21] = system: leukemic cells from AML patients; conditions: cited from earlier work
[22] = system: MV-4-11 (AML) xenograft; conditions: MV-4-11 (AML) xenograft model; cited from earlier work
[23] = system: MOLM-13 (AML) xenograft; conditions: MOLM-13 (AML) xenograft model; cited from earlier work
[24] = system: A549; assay: Cell-proliferation assay using Alamar Blue dye; assay type: cell-based; conditions: Homo sapiens
Summary of the method: (§6)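 Using 4,000-5,000 cells per well, cultures were exposed to compound for four days at 37° C., 5% CO2. Alamar Blue was then added for 4 h, and fluorescence was read at 544 nm excitation / 590 nm emission.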

[25] = system: LNCaP; assay: Cell-proliferation assay using Alamar Blue dye; assay type: cell-based; conditions: Homo sapiens
Summary of the method: as §6

[26] = system: MCF-7; assay: Cell-proliferation assay using Alamar Blue dye; assay type: cell-based; conditions: Homo sapiens, MCF7
Summary of the method: as §6

[27] = system: MDAMB231; assay: Cell-proliferation assay using Alamar Blue dye; assay type: cell-based; conditions: Homo sapiens, MDA-MB-231
Summary of the method: as §6

[28] = system: K-562; assay: Cell-proliferation assay using Alamar Blue dye; assay type: cell-based; conditions: Homo sapiens, K562
[29] = Sprague-Dawley, IV 2.50 mg/kg, SD rats
[30] = dog, 0.8 mg/kg, IV 0.80 mg/kg, Beagle dogs
[31] = dog, PO 3.80 mg/kg, Beagle dogs
[32] = Sprague-Dawley, PO 8.06 mg/kg, SD-Rats

O=C(O)c1ccc2c(c1)nc(Nc1ccccc1OCc1ccccc1)c1ccncc12
IC50 [1]: > 10 µM | inhibition at 0.5 µM [2]: 27.7% | IC50 [3]: 29.8 µM | IC50 [4]: > 10 µM | IC50 [5]: > 10 µM

O=C(O)c1ccc2c(c1)nc(Nc1ccc3c(c1)OCCO3)c1ccncc12
IC50 [1]: > 10 µM | inhibition at 0.5 µM [2]: 88.4% | IC50 [2]: 0.259 µM | IC50 [3]: 29.6 µM | IC50 [4]: > 10 µM | IC50 [5]: > 10 µM

C[C@]12O[C@H](C[C@]1(O)CO)n1c3ccccc3c3c4c(c5c6ccccc6n2c5c31)CNC4=O [CEP-701]
inhibition of Flt3 [6]: potent inhibitor

O=C(O)c1ccc2c(c1)nc(Nc1cccc(Cl)c1)c1ccncc12 [Compound A1]
CLs ([7]; IV 5 mg/kg): 25 mL/min/kg | Cp0-exp ([7]; IV 5 mg/kg): 13201 ng/mL | Kel ([7]; IV 5 mg/kg): 0.1586 h⁻¹ | F(0-8 h) ([7]; PO 25 mg/kg): 10.9% | F(0-inf h) ([7]; PO 25 mg/kg): 18.7% | Kel ([7]; PO 25 mg/kg): 0.1076 h⁻¹ | half-life ([7]; IV 5 mg/kg): 4.4 h | half-life ([7]; PO 25 mg/kg): 6.4 h | Tmax ([8]; Sprague-Dawley, po, […]): 1 h | half-life ([8]; Sprague-Dawley, po, […]): 4.5 h | Cmax [8, 29]: 21300 ng/mL | Vd [8, 29]: 2.5 L/kg | half-life [8, 29]: 9.8 h | AUC(0-12 h) ([9]; IV 0.80 mg/kg, Beagle dogs): 349 ng · h · mI^−1 | AUC(0-Inf) ([9]; IV 0.80 mg/kg, Beagle dogs): 352 ng · h · mI^−1 | CLs ([9]; IV 0.80 mg/kg, Beagle dogs): 38.3 mL/min/kg | Cp0-exp ([9]; IV 0.80 mg/kg, Beagle dogs): 1406 ng/mL | Kel ([9]; IV 0.80 mg/kg, Beagle dogs): 0.5546 h⁻¹ | AUC(0-Inf) ([9]; IV MC 0.80 mg/kg, Beagle dogs): 633 ng · h · mI^−1 | Cmax [9, 30]: 1040 ng/mL | Vd [9, 30]: 4.1 L/kg | half-life [9, 30]: 1.2 h | Cmax [9, 31]: 495 ng/mL | Tmax [9, 31]: 0.5 h | half-life [9, 31]: 1.2 h | tumor growth [10]: significantly inhibited tumor growth | tumor growth [11]: significantly inhibited tumor growth | tumor growth [12]: significantly inhibited tumor growth | tumor growth ([13]; BX-PC3 xenograft mice, oral administration): significantly inhibited tumor growth | compound identified in plasma ([14]; 30 mg/kg IV): about 6.8 micromolar | compound identified in tumors ([14]; 30 mg/kg IV): about 42.9 micromolar | compound identified in plasma ([14]; 60 mg/kg IV): ~2.2 µM | compound identified in tumors ([14]; 60 mg/kg IV): ~7.0 µM | compound identified in plasma ([14]; 200 mg/kg orally): ~9.5 µM | compound identified in tumors ([14]; 200 mg/kg orally): ~6.4 µM | caspase-3 cell staining levels versus untreated control cells [15]: four-fold greater

C#Cc1cccc(Nc2nc3cc(C(=O)O)ccc3c3cncnc23)c1 [Compound A2]
AUC(0-12 h) ([8]; IV 1.56 mg/kg, SD Rats): 39194 ng · h · mI^−1 | AUC(0-Inf) ([8]; IV 1.56 mg/kg, SD Rats): 36659 ng · h · mI^−1 | CLs ([8]; IV 1.56 mg/kg, SD Rats): 1.7 mL/min/kg | Cp0-exp ([8]; IV 1.56 mg/kg, SD Rats): 47935 ng/mL | Kel ([8]; IV 1.56 mg/kg, SD Rats): 0.1215 h⁻¹ | tl/2 ([8]; IV 1.56 mg/kg, SD Rats): 5.7 h | AUC(0-12 h) ([8]; PO 8.06 mg/kg, SD-Rats): 73945 ng · h · mI^−1 | AUC(0-Inf) ([8]; PO 8.06 mg/kg, SD-Rats): 80286 ng · h · mI^−1 | F(0-8 h) ([8]; PO 8.06 mg/kg, SD-Rats): 31.2% | F(0-12 h) ([8]; PO 8.06 mg/kg, SD-Rats): 37.7% | F(0-Inf) ([8]; PO 8.06 mg/kg, SD-Rats): 43.8% | Kel ([8]; PO 8.06 mg/kg, SD-Rats): 0.1077 h⁻¹ | tl/2 ([8]; PO 8.06 mg/kg, SD-Rats): 6.4 h | Cmax ([8]; Sprague-Dawley, IV 1.56 mg/kg, SD Rats): 34300 ng/mL | Cmax [8, 32]: 6670 ng/mL | Tmax [8, 32]: 2 h | Vd ([8]; IV 1.56 mg/kg, SD Rats): 0.6 L/kg | AUC(0-12 h) ([9]; IV 2.00 mg/kg, Dog): 1414 ng · h · mI^−1 | AUC(0-Inf) ([9]; IV 2.00 mg/kg, Dog): 1437 ng · h · mI^−1 | CLs ([9]; IV 2.00 mg/kg, Dog): 23.3 mL/min/kg | Cp0-exp ([9]; IV 2.00 mg/kg, Dog): 3847 ng/mL | Kel ([9]; IV 2.00 mg/kg, Dog): 0.1360 h⁻¹ | tl/2 ([9]; IV 2.00 mg/kg, Dog): 5.1 h | Cmax ([9]; beagle, IV 2.00 mg/kg, Dog): 3070 ng/mL | Vd ([9]; beagle, IV 2.00 mg/kg, Dog): 10.2 L/kg | Cmax ([9]; beagle, PO 7.50 mg/kg, Dog): 1210 ng/mL | Tmax ([9]; beagle, PO 7.50 mg/kg, Dog): 1 h | tumor progression ([16]; IV 50 and 60 mg/kg and IP 100 mg/kg): significantly inhibited tumor progression | tumor progression ([16]; oral 100 mg/kg QD×8 and 200 mg/kg QD×6): significantly inhibited tumor progression | tumor progression (FIG. 4A) ([13]; BC-PC3 xenograft, 60 mg/kg QD IV, 50 mg/kg BID IV or 100 mg/kg BID IP): significantly inhibited tumor progression | tumor progression [17]: significantly inhibited tumor progression | body weight (FIG. 4B) [18]: not significantly altering body weight | half life change on repeated dosing [19]: about doubles | concentration range inhibiting tube formation [20]: 1 to 5 µM

CN(C)C[C@@H]1CCn2cc(c3ccccc32)C2=C(C(=O)NC2=O)c2cn(c3ccccc23)CCO1 [Ly5333′531]
cell growth and cell death [21]: suppressed cell growth and induced cell death

CN1CCC(CNc2ccc3ncc(-c4cccc(OC(F)(F)F)c4)n3n2)CC1 [SGI-1776]
tumor regression [22]: significant tumor regression | tumor regression [23]: significant tumor regression

O=C(O)c1ccc2c(c1)nc(NCCc1cccc(Cl)c1)c1ccncc12 [drawing 1001]
IC50 [24]: 32.5 µM | IC50 [25]: 13.9 µM | IC50 [26]: 47.6 µM | IC50 [27]: 14.2 µM | IC50 [28]: 9.18 µM

O=C(O)c1ccc2c(c1)nc(NCCCc1ccccc1)c1ccncc12 [drawing 1003]
IC50 [24]: > 50 µM | IC50 [25]: 10.4 µM | IC50 [26]: > 50 µM | IC50 [27]: 7.66 µM | IC50 [28]: 7.17 µM

From patent US8168651B2, “Protein kinase modulators” (Cylene Pharmaceuticals, Inc., priority 2008, dated 2012)
